{"source": "patent US5670521A", "about": "“Reversal of multi-drug resistance by triphenyl-azacycloalkane derivatives” (Merrell Pharmaceuticals Inc., priority 1996, dated 1997)", "system": "KBV1 cells", "details": "KBV1 vs wild type KB cells", "description": "The ability of compounds of this invention to reverse multi drug resistance can be determined using standard test procedures. The ability of the test compounds to inhibit the growth of multidrug resistant human epidermoid carcinoma (KBV1) cells in the presence of both Vinblastine and the compound was determined."}
{"smiles": "CC[C@]1(O)C[C@@H]2CN(CCc3c([nH]c4ccccc34)[C@@](C(=O)OC)(c3cc4c(cc3OC)N(C)[C@H]3[C@@](O)(C(=O)OC)[C@H](OC(C)=O)[C@]5(CC)C=CCN6CC[C@]43[C@@H]65)C2)C1", "note": "[Vinblastine]", "values": [{"measurement": "resistance to vinblastine compared to wild type KB cells", "result": "at least 1,000 times"}]}
